Reference: patent US20240018154A1, “NEW INDAZOLE DERIVATIVES” (Hoffmann-La Roche Inc., priority 2020, published 2024)

Each compound was assayed against T1, EGFR LRCS (BaF3-LRCS cell line) (Homo sapiens, UniProt P00533, C797S/L858R) (assay: HTRF Phospho EGFR LRCS assay (cellular)). Conditions: BaF3-LRCS cells, 4 hours incubation with compound, Phospho-EGFR HTRF readout.
T1 construct: host or cells: BaF3 (BaF3-LRCS engineered line, kept under puromycin)
T1 sequence (P00533 25-1210 C797S/L858R): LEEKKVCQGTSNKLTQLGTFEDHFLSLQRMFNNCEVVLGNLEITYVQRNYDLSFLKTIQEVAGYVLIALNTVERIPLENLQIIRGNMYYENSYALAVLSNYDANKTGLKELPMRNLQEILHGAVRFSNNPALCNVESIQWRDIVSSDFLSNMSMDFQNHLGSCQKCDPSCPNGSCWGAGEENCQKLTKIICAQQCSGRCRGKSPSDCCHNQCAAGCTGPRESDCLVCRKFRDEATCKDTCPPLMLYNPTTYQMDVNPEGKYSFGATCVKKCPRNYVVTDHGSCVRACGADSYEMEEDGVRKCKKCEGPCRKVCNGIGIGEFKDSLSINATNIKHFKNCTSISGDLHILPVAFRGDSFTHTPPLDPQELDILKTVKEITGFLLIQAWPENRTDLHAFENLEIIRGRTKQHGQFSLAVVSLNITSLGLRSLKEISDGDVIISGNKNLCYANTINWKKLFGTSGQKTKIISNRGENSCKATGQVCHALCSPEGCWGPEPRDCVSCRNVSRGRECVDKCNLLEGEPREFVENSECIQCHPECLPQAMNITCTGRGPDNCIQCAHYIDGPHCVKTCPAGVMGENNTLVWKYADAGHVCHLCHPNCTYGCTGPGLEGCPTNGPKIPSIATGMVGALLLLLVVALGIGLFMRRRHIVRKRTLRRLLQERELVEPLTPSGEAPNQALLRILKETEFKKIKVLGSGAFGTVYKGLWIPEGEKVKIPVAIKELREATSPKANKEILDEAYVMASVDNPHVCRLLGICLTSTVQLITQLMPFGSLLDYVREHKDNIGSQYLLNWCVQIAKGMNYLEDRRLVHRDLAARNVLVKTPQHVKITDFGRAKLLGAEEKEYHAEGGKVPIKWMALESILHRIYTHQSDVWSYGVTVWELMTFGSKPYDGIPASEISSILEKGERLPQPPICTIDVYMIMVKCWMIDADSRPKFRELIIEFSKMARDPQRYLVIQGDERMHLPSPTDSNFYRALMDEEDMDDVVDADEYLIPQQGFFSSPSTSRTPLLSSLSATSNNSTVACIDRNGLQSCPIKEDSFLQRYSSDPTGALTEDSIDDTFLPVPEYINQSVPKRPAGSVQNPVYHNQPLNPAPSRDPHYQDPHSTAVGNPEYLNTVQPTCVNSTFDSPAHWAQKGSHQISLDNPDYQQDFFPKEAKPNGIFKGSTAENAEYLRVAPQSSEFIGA
Format: cell-based
Experimental: HTRF Phospho EGFR LRCS Assay (Cellular)
BaF3-LRCS cell line were obtained from Crownbio (San Diego, CA, USA). Cells were maintained at 37° C., 5% CO2 in RPMI ATCC (Gibco 31870)+2 mM Glutamine+0.5 μg/ml Puromycin supplemented with 10% fetal bovine serum (FBS) (Gibco).
Cells are transferred as above to Greiner Bio-One, Nr. 784-08 micro-titerplate at 20000 cells/well in 12.5 μl of growth medium/well after the plates had been pre-filled with 12.5 nl of DMSO solutions of the to be tested compounds (in dose response) or DMSO only. After spinning the plates at 300×g for 30 seconds the cells were incubated for 4 hours at 37 C, 5% CO2, 95% humidity. The cells were lysed by adding to the compound mix 4 μl/well of the supplemented lysis buffer (Cis-bio, Phospho-EGFR HTRF kit, 64EG1PEH), followed by incubation for 30 min at room temperature with shaking (400 rpm). The plates were then frozen and stored overnight at −80° C. On the next day and after thawing the plates, 4 μl of a mixture of anti-Phospho-EGFR Cryptate and of anti-Phospho-EGFR-d2 antibody solutions prepared in the supplied detection buffer was added to each well. The lidded plates were then incubated for 4 h at room temperature before reading the fluorescence emission at 616 and 665 nm using an Envision reader (Perkin Elmer). Data was analyzed in similar fashion as above using the normalized ratio of the 665 to 616 signals multiplied by 10000.
Work on Cc1c(-c2ccc(C3CC(CN4CCC(O)CC4)C3)cc2)cc(C(F)F)c2cn(C(C(=O)Nc3nccs3)c3ncn4c3C[C@@H](F)C4)nc12 (stereo partly drawn) [Example 17, 2-[4-(Difluoromethyl)-6-[4-[3-[(4-hydroxy-1-piperidyl)methyl]cyclobutyl]phenyl]-7-methyl-indazol-2-yl]-2-[(6R)-6-fluoro-6,7-dihydro-5H-pyrrolo[1,2-c]imidazol-1-yl]-N-thiazol-2-yl-acetamide] yielded an IC50 of 0.03 µM. Compound Cc1c(-c2ccc(OCCN3CCOCC3)cc2)cc(C(F)F)c2cn(C(C(=O)Nc3nccs3)c3ncn4c3C[C@@H](F)C4)nc12 (stereo partly drawn) [Example 18, 2-[4-(Difluoromethyl)-7-methyl-6-[4-(2-morpholinoethoxy)phenyl]indazol-2-yl]-2-[(6R)-6-fluoro-6,7-dihydro-5H-pyrrolo[1,2-c]imidazol-1-yl]-N-thiazol-2-yl-acetamide] has an IC50 of 0.028 µM. For Cc1c(-c2ccc(N3CC(CN4CCC(CO)CC4)C3)cc2)cc(C(F)F)c2cn(C(C(=O)Nc3nccs3)c3ncn4c3C[C@@H](F)C4)nc12 (stereo partly drawn) [Example 19, 2-(4-(Difluoromethyl)-6-(4-(3-((4-(hydroxymethyl)piperidin-1-yl)methyl)azetidin-1-yl)phenyl)-7-methyl-211-indazol-2-yl)-2-((R)-6-fluoro-6,7-dihydro-5H-pyrrolo[1,2-c]imidazol-1-yl)-N-(thiazol-2-yl)acetamide], the IC50 was 0.016 µM. For Cc1c(-c2ccc(N3CCN(CCO)CC3)cc2)cc(C(F)F)c2cn(C(C(=O)Nc3nccs3)c3ncn4c3C[C@@H](F)C4)nc12 (stereo partly drawn) [Example 20, 2-[4-(Difluoromethyl)-6-[4-[4-(2-hydroxyethyl)piperazin-1-yl]phenyl]-7-methyl-indazol-2-yl]-2-[(6R)-6-fluoro-6,7-dihydro-5H-pyrrolo[1,2-c]imidazol-1-yl]-N-thiazol-2-yl-acetamide], the IC50 was 0.012 µM. Cc1c(-c2ccc(N3CCOCC3)nc2)cc(C(F)F)c2cn(C(C(=O)Nc3nccs3)c3ncn4c3C[C@@H](F)C4)nc12 (stereo partly drawn) [Example 21, 2-[4-(Difluoromethyl)-7-methyl-6-(6-morpholino-3-pyridyl)indazol-2-yl]-2-[(6R)-6-fluoro-6,7-dihydro-5H-pyrrolo[1,2-c]imidazol-1-yl]-N-thiazol-2-yl-acetamide] gave an IC50 of 0.012 µM. Compound Cc1c(-c2ccc(OCCN3CCC(C(C)O)CC3)cc2)cc(C(F)F)c2cn(C(C(=O)Nc3nccs3)c3ncn4c3C[C@@H](F)C4)nc12 (stereo partly drawn) [Example 22, 2-[4-(Difluoromethyl)-6-[4-[2-[4-(1-hydroxyethyl)-1-piperidyl]ethoxy]phenyl]-7-methyl-indazol-2-yl]-2-[(6R)-6-fluoro-6,7-dihydro-5H-pyrrolo[1,2-c]imidazol-1-yl]-N-thiazol-2-yl-acetamide] has an IC50 of 0.03 µM. Cc1c(-c2ccc(C3CCN(CC(C)F)CC3)cc2)cc(C(F)F)c2cn(C(C(=O)Nc3nccs3)c3ncn4c3C[C@@H](F)C4)nc12 (stereo partly drawn) [Example 23, 2-[4-(Difluoromethyl)-6-[4-[1-(2-fluoropropyl)-4-piperidyl]phenyl]-7-methyl-indazol-2-yl]-2-[(6R)-6-fluoro-6,7-dihydro-5H-pyrrolo[1,2-c]imidazol-1-yl]-N-thiazol-2-yl-acetamide] showed an IC50 of 0.021 µM. Cc1c(-c2ccc(N3CCC(C)(O)CC3)cc2)cc(C(F)F)c2cn(C(C(=O)Nc3nccs3)c3ncn4c3C[C@@H](F)C4)nc12 (stereo partly drawn) [Example 24, 2-[4-(Difluoromethyl)-6-[4-(4-hydroxy-4-methyl-1-piperidyl)phenyl]-7-methyl-indazol-2-yl]-2-[(6R)-6-fluoro-6,7-dihydro-5H-pyrrolo[1,2-c]imidazol-1-yl]-N-thiazol-2-yl-acetamide] showed an IC50 of 0.025 µM. With CCN1C[C@H]2CN(c3ccc(-c4cc(C(F)F)c5cn(C(C(=O)Nc6nccs6)c6ncn7c6C[C@@H](F)C7)nc5c4C)cc3)C[C@]2(F)C1 (stereo partly drawn) [Example 25, 2-[6-[4-[(3aR,6aS)-2-Ethyl-3a-fluoro-3,4,6,6a-tetrahydro-1H-pyrrolo[3,4-c]pyrrol-5-yl]phenyl]-4-(difluoromethyl)-7-methyl-indazol-2-yl]-2-[(6R)-6-fluoro-6,7-dihydro-5H-pyrrolo[1,2-c]imidazol-1-yl]-N-thiazol-2-yl-acetamide] the IC50 was 0.029 µM. Cc1c(-c2ccc(N3CCOC(CN(C)C)C3)cc2)cc(C(F)F)c2cn(C(C(=O)Nc3nccs3)c3ncn4c3C[C@@H](F)C4)nc12 (stereo partly drawn) [Example 26, 2-[4-(Difluoromethyl)-6-[4-[2-[(dimethylamino)methyl]morpholin-4-yl]phenyl]-7-methyl-indazol-2-yl]-2-[(6R)-6-fluoro-6,7-dihydro-5H-pyrrolo[1,2-c]imidazol-1-yl]-N-thiazol-2-yl-acetamide] gave an IC50 of 0.078 µM. Cc1c(-c2ccc(CCN3CCC(O)CC3)cc2)cc(C(F)F)c2cn(C(C(=O)Nc3nccs3)c3ncn4c3C[C@@H](F)C4)nc12 (stereo partly drawn) [Example 27, 2-[4-(Difluoromethyl)-6-[4-[2-(4-hydroxy-1-piperidyl)ethyl]phenyl]-7-methyl-indazol-2-yl]-2-[(6R)-6-fluoro-6,7-dihydro-5H-pyrrolo[1,2-c]imidazol-1-yl]-N-thiazol-2-yl-acetamide] gave an IC50 of 0.028 µM. Work on Cc1c(-c2ccc(CN(C)C3CCC(O)CC3)cc2)cc(C(F)F)c2cn(C(C(=O)Nc3nccs3)c3ncn4c3C[C@@H](F)C4)nc12 (stereo partly drawn) [Example 28, 2-[4-(Difluoromethyl)-6-[4-[[(4-hydroxycyclohexyl)-methyl-amino]methyl]phenyl]-7-methyl-indazol-2-yl]-2-[(6R)-6-fluoro-6,7-dihydro-5H-pyrrolo[1,2-c]imidazol-1-yl]-N-thiazol-2-yl-acetamide] yielded an IC50 of 0.034 µM. Cc1c(-c2ccc(N3C[C@H]4CN(CC(C)F)C[C@H]4C3)cc2)cc(C(F)F)c2cn(C(C(=O)Nc3nccs3)c3ncn4c3C[C@@H](F)C4)nc12 (stereo partly drawn) [Example 29, 2-[6-[4-[(3aR,6aS)-2-(2-Fluoropropyl)-1,3,3a,4,6,6a-hexahydropyrrolo[3,4-c]pyrrol-5-yl]phenyl]-4-(difluoromethyl)-7-methyl-indazol-2-yl]-2-[(6R)-6-fluoro-6,7-dihydro-5H-pyrrolo[1,2-c]imidazol-1-yl]-N-thiazol-2-yl-acetamide] showed an IC50 of 0.028 µM.
